In paper PMC10115881, “Disrupting the α-synuclein-ESCRT interaction with a peptide inhibitor mitigates neurodegeneration in preclinical models of Parkinson’s disease” (Nature Communications, 2023):

Tests used:
Rab7 = Rab7 fluorescence in rat cortical neurons; type: cell-based; conditions: A53T a-syn
From the text: Pregnant rats (E17) of the Sprague-Dawley strain were purchased from Envigo. Embryos were surgically removed from the mothers and cortices dissected in Hanks Balanced salt solution (Gibco). The meninges were removed, and cells were dissociated using a papain dissociation system (Worthington) before being resuspended in Neurobasal medium A supplemented with antibiotic-antimycotic solution (Gibco), L-glutamine substitute (GlutaMAX™; Gibco) and factor B27 (Gibco). […]
After fixation, cells were permeabilized with 0.2% Triton-X-100 for 15 min, washed three times with PBS and then incubated with blocking solution (1% BSA, 22.52 mg/mL glycine, 0.1% Tween-20 in PBS or 0.4% saponin, 1% BSA, and 5% goat or donkey serum in PBS) for 1 h. […] Following another three washes with PBS, nuclei were counterstained with DAPI (ThermoFisher) and then coverslips were mounted on slides using Dako fluorescence mounting medium (Agilent) and sealed using clear nail varnish.
Confocal images of primary cortical neurons, iPSC-derived dopaminergic neurons, and LAMP1 staining within the SN were processed using Imaris software (Oxford instruments). […] Mean pixel intensity per GFP^+ cell (for experiments using GFP-tagged peptides) or RFP^+ cell (for experiments using RFP-tagged peptides) was calculated for a-syn or LAMP1 signal using the software’s surfaces module. […]

[1] = test system: A53T a-syn-CHMP2B interaction; experiment: Co-immunoprecipitation: disruption of a-syn-CHMP2B interaction; type: cell-based; conditions: HEK293 co-immunoprecipitation
Procedure: HEK293T cells were co-transfected with Flag-tagged target protein, HA-tagged source protein, and GFP-tagged peptide or GFP. Cells were lysed 48 h after transfections with radioimmune precipitation assay buffer (50 mM Tris-HCl pH 7.4, 1% Nonidet P-40, 150 mM NaCl, 1 mM EDTA, 10 mM Na3VO4, 10 mM sodium pyrophosphate, 25 mM NaF, 1× protease inhibitor mixture (Sigma)) for 30 min at 4 °C and co-immunoprecipitated with Flag beads (Clontech). The resulting immunocomplexes were analyzed by immunoblot using the appropriate antibodies. Protein samples were separated using 4–20% Mini-PROTEAN Tris-glycine gels (Bio-Rad) transferred to PVDF membranes and blocked in 5% milk containing PBS-Tween-20 (0.1%) for 1 h. PVDF membranes were then incubated with specified primary antibodies followed by incubation with horseradish peroxidase-conjugated secondary antibodies (anti-mouse HRP-linked, Cell Signaling, catalog #7076, 1:5000; anti-rabbit HRP-linked, Cell Signaling, catalog #7074, 1:5000) and detected using enhanced chemiluminescence (GE Healthcare). HA antibodies were obtained from Santa Cruz (catalog #7392, 1:2000), GFP antibodies were purchased from Abcam (catalog #ab290, 1:2000), and Flag antibodies were purchased from Sigma (catalog #A8592, 1:1000).

DEEIERQLKALG [PDpep1.3]
Effect on Rab7 (Rab7): normalized | Effect on a-syn-CHMP2B interaction [1]: disrupted this a-syn-CHMP2B interaction
